According to patent US8940774B2, “Tris-Quaternary Ammonium Salts and Methods for Modulating Neuronal Nicotinic Acetylcholine Receptors” (University of Kentucky Research Foundation, priority 2005, dated 2015):

Tests used:
[1] = target: T1, Rat Striatal Nicotinic Receptors (Rattus norvegicus, UniProt P09483+P12390); assay: Inhibition of [3H]Nicotine (NIC) binding assay, rat striatal membranes; conditions: % inhibition at 100 nM concentration of analog, 3 nM [3H]NIC
T1 construct: from tissue; host or cells: rat striatal membranes
Method: Striata from two rats were dissected, pooled, and homogenized with a Tekmar polytron in 10 vol of ice-cold modified Krebs-HEPES buffer (20 mM HEPES, 118 mM NaCl, 4.8 mM, KCl, 2.5 mM CaCl2, 1.2 mM MgSO4, adjusted to pH 7.5). The homogenates were incubated at 37° C. for 5 minutes and centrifuged at 15,000 g for 20 minutes. The pellet was resuspended in 10 volumes of ice-cold MilliQ water, incubated for 5 minutes at 37° C., and centrifuged at 15,000 g for 20 minutes. The second pellet was then resuspended in 10 volumes of fresh ice-cold 10% Krebs-HEPES buffer, incubated at 37° C., and centrifuged at 15,000 g for 20 minutes. The latter sequence of resuspension, incubation and centrifugation was repeated. The pellet was frozen under fresh 10% Krebs-HEPES buffer and stored at −40° C. until assay. Upon assay, the pellet was resuspended in Krebs-HEPES buffer, incubated at 37° C. for 5 minutes, and centrifuged at 15,000 g for 20 minutes. The final pellet was resuspended in 3.6 mL ice-cold MilliQ water which provided for approximately 200 μg protein per 100 μL aliquot. Competition assays were performed in duplicate in a final volume of 200 μL Krebs-HEPES buffer containing […] Tris buffer (pH 7.5 at 4° C.). Reactions were initiated by addition of 100 μL of membrane suspension to 3 nM [^3H]NIC (50 μL) and one of at least nine concentrations of analog (50 μL). After a 90 minute incubation at 4° C., reactions were terminated by dilution of the samples with 3 mL of ice-cold Krebs-HEPES buffer followed immediately by filtration through Whatman GF/B glass fiber filters (presoaked in 0.5% polyethyleneimine) using a Brandel Cell Harvester. Filters were rinsed three times with 3 mL of ice-cold Krebs-HEPES buffer, transferred to scintillation vials, and 5 mL scintillation cocktail (Research Products international Corp., Mt. Prospect, Ill.) added. Nonspecific binding determined in triplicate was defined as binding in the presence of 10 μM NIC. Binding parameters were determined using the weighted, least squares non-linear regression. The tris-quaternary ammonium salts were evaluated for their ability to displace [^3H]NIC binding from rat striatal membranes.
(§1) Data are % inhibition at 100 nM concentration of analog for at least 1-3 independent experiments. Specific binding in the [^3H]NIC binding assay is calculated at the difference between the total binding of [^3H]NIC and nonspecific binding in the presence of 10 μM cold nicotine. Specific binding for the [^3H]MLA binding assay is calculated as the difference between the total binding of 2.5 nM [^3H]MLA to the receptors alone and its nonspecific binding in the presence of 1 μM cold MLA. Analog-induced inhibition of nicotine-evoked [^3H]DA release is calculated as a percent of that in the absence of analog.

[2] = target: T2, α7-type neuronal nicotinic acetylcholine receptors (Rattus norvegicus, UniProt Q05941); assay: Inhibition of [3H]Methyllycaconitine (MLA) binding assay, rat brain membranes; conditions: % inhibition at 100 nM concentration of analog; rat brain membranes; 2.5 nM [3H]MLA; read-out: Inhibition of [3H]MLA binding
T2 construct: from tissue; host or cells: rat brain membranes (whole brain without cortex, striatum and cerebellum)
Method: Rat brain was dissected into the whole brain tissue without cortex, striatum and cerebellum and was frozen in liquid nitrogen and stored at −70° C. until use. The brain tissue was homogenized with a Tekmar Polytron (setting 40) in 20 volumes of ice-cold hypotonic buffer (2 mM HEPES, 14.4 mM NaCl, 0.15 mM KCl, 0.2 mM CaCl2 and 0.1 mM MgSO4, pH=7.5). The homogenate was incubated at 37° C. for 10 minutes and centrifuged at 25,000 g for 15 minutes at […] The pellet was washed 3 times more by resuspension in 20 volumes of the same buffer and centrifugation at the above parameters. The final pellet was stored at −20° C. under 4.6 mL of the incubation buffer and was suspended just before the incubation with radioligand.
The binding of [^3H]MLA to probe α7-type neuronal nicotinic acetylcholine receptors was measured using a modification of the method of Davies at al., “Characterisation of the binding of [^3H]methyllycaconitine (MLA): a radioligand for labelling α7-type neuronal nicotinic acetylcholine receptors,” Neuropharmacology, 38, 679-690 (1999). [^3H]MLA (25.4 Ci/mmol) was purchased from Tocris Cookson Ltd., Bristol, U.K. Binding was performed in duplicate, in a final volume of 250 μL of the incubation medium, containing 20 mM HEPES, 144 mM NaCl, 1.5 mM KCl, 2 mM CaCl2, 1 mM MgSO4 and 0.05% BSA, pH=7.5. Reaction was initiated by the addition of 100 μL of membrane suspension to the samples containing a desired concentration of test compounds and […] [^3H]MLA (final concentration) and incubated for 2 hours it room temperature. Total binding was measured in the absence of unlabelled ligand, and nonspecific binding was determined by the presence of 1 μM unlabelled MLA. The binding reaction was terminated by dilution of samples with 3 mL of ice-cold incubation buffer followed by immediate filtration through glass fiber filters (S&S, grade #32, presoaked in 0.5% polyethylenimine) using a Brandel harvester system. Filters were rinsed three times with 3 mL of ice-cold buffer, transferred to scintillation vials and 4 mL of scintillation cocktail was added. Protein was measured using the Bradford dye-binding procedure with bovine serum albumin as the standard.
The tris-quaternary ammonium salts were evaluated for their ability to displace [^3H]MLA binding from rat brain membranes.
as §1

[3] = test system: NIC-evoked [3H]DA release from rat striatal slices; assay: Nicotine-evoked [3H]dopamine release assay, superfused rat striatal slices; format: cell-based; conditions: 100 nM analog superfused 60 minutes prior to NIC (10 μM), percent of that in the absence of analog
Method: Rat striatal slices (500 μm thickness, 6-8 mg wet weight) were incubated for 30 minutes in Krebs buffer (118 mM NaCl, 4.7 mM KCl, 1.2 mM MgCl2, 1.0 mM NaH2PO4, 1.3 mM CaCl2, 11.1 mM glucose, 25 mM NaHCO3, 0.11 mM L-ascorbic acid and 0.004 mM disodium EDTA; pH 7.4, and saturated with 95% O2/5% CO2) in a metabolic shaker at 34° C. Slices were rinsed with 15 mL of fresh buffer and incubated for an additional 30 minutes in fresh buffer containing 0.1 μM [^3H]dopamine (DA; 6 slices/3 mL). Subsequently, slices were rinsed with 15 mL of fresh buffer and transferred to a glass superfusion chamber. Slices were superfused (1.0 mL/min) for 60 minutes with Krebs buffer containing nomifensine (10 μM) and pargyline (10 μM) and maintained at 34° C., pH 7.4 with continual aeration (95% O2/5% CO2). Two five minute samples (5 mL each) were collected to determine basal outflow of [^3H]DA. Analogs were added to the superfusion buffer after the collection of the second sample and remained in the buffer until 12 consecutive five minute samples were collected. Subsequently, S-(−)-nicotine (10 μM) was added to the buffer and an additional 12 consecutive five minute samples were collected. At the end of the experiment, each slice was solubilized and the [^3H] content of the tissue determined.
Radioactivity in the superfusate and tissue samples were determined by liquid scintillation spectroscopy. Fractional release for tritium collected in each sample was divided by the total tritium present at the time of sample collection and was expressed as a percentage of total tritium. Basal [^3H] outflow was calculated from the average of the tritium collected in the two five-minute samples just before addition of the analog. The sum of the increase in collected tritium resulting from either exposure to the test compound or exposure to S-(−)-nicotine in the absence cod presence of the test compound equaled total [^3H] overflow. [^3H] Overflow was calculated by subtracting the [^3H] outflow during an equivalent period of prestimulation from the values in samples collected during and after drug exposure. Inasmuch as the radiolabelled compounds were not separated and identified, the tritium in the superfusate is referred to as either [^3H] outflow or [^3H] overflow, rather than [^3H]DA. [^3H] Overflow primarily represents [^3H]DA in the presence of nomifesine and pargyline in the superfusion buffer. […]
Analogs were also evaluated for their ability to inhibit NIC evoked [^3H]DA release. In these experiments, the striatal slices were superfused for 60 minutes with 100 nM concentration of the analogs prior to NIC (10 μM) exposure. Antagonist activity was evaluated by comparing the NIC-evoked [^3H] overflow in the absence and presence of the analogs. The relative order of potency of the analogs for inhibition of NIC-evoked [^3H]DA release from rat striatal slices is illustrated in Table 1.
as §1

T1 sequence (P09483 31-630): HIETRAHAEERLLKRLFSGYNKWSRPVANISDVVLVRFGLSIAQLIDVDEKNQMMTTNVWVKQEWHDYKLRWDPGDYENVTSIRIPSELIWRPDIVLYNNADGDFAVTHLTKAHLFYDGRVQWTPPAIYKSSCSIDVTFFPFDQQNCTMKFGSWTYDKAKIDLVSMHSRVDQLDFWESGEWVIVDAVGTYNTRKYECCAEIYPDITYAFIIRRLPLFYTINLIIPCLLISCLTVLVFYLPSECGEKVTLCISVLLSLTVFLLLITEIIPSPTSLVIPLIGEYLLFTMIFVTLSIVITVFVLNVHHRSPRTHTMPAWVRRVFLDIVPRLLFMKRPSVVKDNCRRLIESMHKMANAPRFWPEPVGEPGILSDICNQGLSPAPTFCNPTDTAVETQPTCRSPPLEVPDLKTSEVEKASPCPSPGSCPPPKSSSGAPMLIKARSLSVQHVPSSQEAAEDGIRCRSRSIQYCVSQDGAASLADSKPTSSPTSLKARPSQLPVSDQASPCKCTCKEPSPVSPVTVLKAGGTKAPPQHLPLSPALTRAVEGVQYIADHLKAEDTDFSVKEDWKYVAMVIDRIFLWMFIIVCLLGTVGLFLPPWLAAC
T1 sequence (P12390 25-500): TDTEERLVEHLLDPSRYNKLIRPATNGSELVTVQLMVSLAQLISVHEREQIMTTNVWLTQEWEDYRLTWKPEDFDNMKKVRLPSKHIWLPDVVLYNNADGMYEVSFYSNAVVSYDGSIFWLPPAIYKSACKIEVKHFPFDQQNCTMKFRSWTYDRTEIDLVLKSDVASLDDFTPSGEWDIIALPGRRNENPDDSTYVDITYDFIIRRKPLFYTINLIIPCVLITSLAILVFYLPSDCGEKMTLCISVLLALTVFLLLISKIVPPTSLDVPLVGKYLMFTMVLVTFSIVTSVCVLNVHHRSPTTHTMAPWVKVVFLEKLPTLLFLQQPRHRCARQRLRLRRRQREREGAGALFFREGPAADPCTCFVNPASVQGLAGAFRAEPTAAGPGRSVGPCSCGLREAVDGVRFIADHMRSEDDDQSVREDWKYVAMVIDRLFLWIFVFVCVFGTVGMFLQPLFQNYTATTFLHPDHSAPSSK
T2 sequence (Q05941 23-502): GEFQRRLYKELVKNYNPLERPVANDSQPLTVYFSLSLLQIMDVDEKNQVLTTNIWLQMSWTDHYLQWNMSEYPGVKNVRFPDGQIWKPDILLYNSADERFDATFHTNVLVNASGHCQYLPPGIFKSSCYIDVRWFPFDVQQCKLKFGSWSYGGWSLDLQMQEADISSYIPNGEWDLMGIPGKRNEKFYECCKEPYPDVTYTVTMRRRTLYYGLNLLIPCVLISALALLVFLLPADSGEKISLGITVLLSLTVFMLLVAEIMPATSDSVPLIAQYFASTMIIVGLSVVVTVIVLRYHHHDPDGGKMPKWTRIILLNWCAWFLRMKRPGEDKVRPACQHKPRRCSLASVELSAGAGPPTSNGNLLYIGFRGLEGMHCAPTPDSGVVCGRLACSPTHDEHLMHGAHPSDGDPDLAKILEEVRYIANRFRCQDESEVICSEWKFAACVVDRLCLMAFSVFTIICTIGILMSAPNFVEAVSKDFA

| SMILES | inhibition at 0.1 µM [1] [%] | inhibition at 0.1 µM [2] [%] | inhibition at 0.1 µM [3] [%] |
| --- | --- | --- | --- |
| c1ccc2c[n+](CCCCCc3cc(CCCCC[n+]4ccc5ccccc5c4)cc(CCCCC[n+]4ccc5ccccc5c4)c3)ccc2c1 [GZ556B, 1,3,5-tris-[5-(2-isoquinolinium)-pentyl]-benzene tribromide] | 8.4 ± 7.6 | 2.5 ± 1.5 | 28 ± 11 |
| Cc1cc[n+](CCCC#Cc2cc(C#CCCC[n+]3ccc(C)c(C)c3)cc(C#CCCC[n+]3ccc(C)c(C)c3)c2)cc1C [GZ553B, 1,3,5-tris-[5-(3,4-lutidinium)-pent-1-ynyl]-benzene tribromide] | 4 ± 1.4 | 1.8 ± 1.8 | 0 |
| Cc1ccc[n+](CCCC#Cc2cc(C#CCCC[n+]3cccc(C)c3)cc(C#CCCC[n+]3cccc(C)c3)c2)c1 [GZ550A, 1,3,5-tris-[5-(3-picolinium)-pent-1-ynyl]-benzene tribromide] | 10 ± 1.9 | 0 | 46 |
| Cc1ccc[n+](CCCCCc2cc(CCCCC[n+]3cccc(C)c3)cc(CCCCC[n+]3cccc(C)c3)c2)c1 [GZ555A, 1,3,5-tris-[5-(3-picolinium)-pentyl]-benzene tribromide] | 14 ± 6.1 | 1.2 ± 1.2 | 42 |
| Cc1cc[n+](CCCCCc2cc(CCCCC[n+]3ccc(C)c(C)c3)cc(CCCCC[n+]3ccc(C)c(C)c3)c2)cc1C [GZ557B, 1,3,5-tris-[5-(3,4-lutidinium)-pentyl]-benzene tribromide] | 9.3 ± 4.1 | 0.2 ± 0.2 | 50 ± 21 |
| C(#Cc1cc(C#CCCC[n+]2cccc3ccccc32)cc(C#CCCC[n+]2cccc3ccccc32)c1)CCC[n+]1cccc2ccccc21 [GZ552A, 1,3,5-tris-[5-(1-quinolinium)-pent-1-ynyl]-benzene tribromide] | 7 ± 3.8 | 21 ± 6 | 72 |
| Cc1cc[n+](CCCC#Cc2cc(C#CCCC[n+]3ccc(C)cc3)cc(C#CCCC[n+]3ccc(C)cc3)c2)cc1 [GZ554B, 1,3,5-tris-[5-(4-picolinium)-pent-1-ynyl]-benzene tribromide] | 21 ± 4.5 | 0 | 34 |
| Cc1cccc[n+]1CCCCCc1cc(CCCCC[n+]2ccccc2C)cc(CCCCC[n+]2ccccc2C)c1 [GZ555B, 1,3,5-tris-[5-(2-picolinium)-pentyl]-benzene tribromide] | 8.6 ± 7.2 | 0 | 25 |
| C(#Cc1cc(C#CCCC[n+]2ccc3ccccc3c2)cc(C#CCCC[n+]2ccc3ccccc3c2)c1)CCC[n+]1ccc2ccccc2c1 [GZ552B, 1,3,5-tris-[5-(2-isoquinolinium)-pent-1-ynyl]-benzene tribromide] | 9.2 ± 5 | 4.5 ± 2.6 | 49 |
| Cc1cc(C)c[n+](CCCC#Cc2cc(C#CCCC[n+]3cc(C)cc(C)c3)cc(C#CCCC[n+]3cc(C)cc(C)c3)c2)c1 [GZ553A, 1,3,5-tris-[5-(3,5-lutidinium)-pent-1-ynyl]-benzene tribromide] | 8.9 ± 2.9 | 0 | 31 |
| Cc1cc(C)c[n+](CCCCCc2cc(CCCCC[n+]3cc(C)cc(C)c3)cc(CCCCC[n+]3cc(C)cc(C)c3)c2)c1 [GZ557A, 1,3,5-tris-[5-(3,5-lutidinium)-pentyl]-benzene tribromide] | 11 ± 2.9 | 6.5 ± 3.6 | 39 ± 18 |
| c1ccc(-c2ccc[n+](CCCCCc3cc(CCCCC[n+]4cccc(-c5ccccc5)c4)cc(CCCCC[n+]4cccc(-c5ccccc5)c4)c3)c2)cc1 [GZ558A, 1,3,5-tris-[5-(3-phenyl-pyridinium)-pentyl]-benzene tribromide] | 14 ± 5.8 | 19 ± 1.7 | 6 ± 5 |
| CCCCc1ccc[n+](CCCCCc2cc(CCCCC[n+]3cccc(CCCC)c3)cc(CCCCC[n+]3cccc(CCCC)c3)c2)c1 [GZ558B, 1,3,5-tris-[5-(3-butyl-pyridinium)-pentyl]-benzene tribromide] | 6.2 ± 4 | 4.4 ± 3.3 | 68 ± 14 |
| Cc1cc[n+](CCCCCc2cc(CCCCC[n+]3ccc(C)cc3)cc(CCCCC[n+]3ccc(C)cc3)c2)cc1 [GZ555C, 1,3,5-tris-[5-(4-picolinium)-pentyl]-benzene tribromide] | 6 ± 3.4 | 0 | 37 ± 17 |
